In series [1] the target is human inducible NO-synthase (Homo sapiens, UniProt P35228). The series is described as follows: Measurement of inducible NO-synthase activity ([3H]arginine conversion). It counts as biochemical. The conditions noted are these: crude cytosolic fraction containing human inducible NO-synthase; 0.1 μM arginine; 45 to 60 min at 37° C; read-out: Inhibition of iNOS activity [measured as −logIC50 (mol/l)] (converted). Here is the method: Measurement of Inducible NO-Synthase Activity
The assay is performed in 96-well microtiter F-plates (Greiner, Frickenhausen, FRG) in a total volume of 100 μl in the presence of 100 nM calmodulin, 226 μM CaCl2, 477 μM MgCl2, 5 μM flavin-adenine-dinucleotide (FAD), 5 μM flavin mononucleotide (FMN), 0.1 mM NADPH, 7 mM glutathione, 10 μM BH4 and 100 mM HEPES pH 7.2. Arginine concentrations are 0.1 μM for enzyme inhibition experiments. 150000 dpm of [^3H]arginine are added to the assay mixture. Enzyme reaction is started by the addition of 4 μg of a crude cytosolic fraction containing human inducible NO-synthase and the reaction mixture is incubated for 45 to 60 min at 37° C. Enzyme reaction is stopped by adding 10 μl of 2M MES-buffer pH 5,0. 50 μl of the incubation mixture are transferred into a MADP N65 filtration microtiter plate (Millipore, Eschborn, FRG) containing already 50 μl of AG-50W-X8 cation exchange resin (Biorad, München, FRG). The resin in the Na loaded form is preequilibrated in water and 70 μl (corresponding to 50 μl dry beads) are pipetted under heavy stirring with a 8 channel pipette into the filtration plate. After pipetting 50 μl of the enzyme reaction mixture onto the filtration plates, the plates are placed on a filtration manifold (Porvair, Shepperton, UK) and the flow through is collected in Pico scintillation plates (Packard, Meriden, Conn.). The resin in the filtration plates is washed with 75 μl of water (1×50 μl and 1×25 μl) which is also collected in the same plate as the sample. The total flow through of 125 μl is mixed with 175 μl of Microscint-40 scintillation cocktail (Packard) and the scintillation plate is sealed with TopSeal P-foil (Packard). Scintillation plates are counted in a szintillation counter.
For the measurement of inducible NO-synthase-inhibiting potencies of compounds increasing concentrations of inhibitors were included into the incubation mixture. IC50-values were calculated from the percent inhibition at given concentrations by nonlinear least square fitting.
The inhibitory values determined for the compounds according to the invention follow from the following table A, in which the compound numbers correspond to the example numbers.

One may read the melting point as the temperature, or range, at which the solid turns liquid. With `CCN(CC)S(=O)(=O)c1ccc(-c2cnc3[nH]c(CCc4cc(OC)ccn4)nc3c2)cc1` [compound 2, N,N-Diethyl-4-{2-[2-(4-methoxypyridin-2-yl)ethyl]-3H-imidazo-[4,5-b]pyridin-6-yl}benzenesulfonamide], the melting point lay in the range of 127 to 129 °C. The IC50 in series [1] is 35.5 nM.
The compound `CNS(=O)(=O)c1ccc(-c2cnc3[nH]c(CCc4cc(OC)ccn4)nc3c2)cc1` [compound 3, 4-{2-[2-(4-Methoxypyridin-2-yl)ethyl]-3H-imidazo[4,5-b]pyridin-6-yl}-N-methyl-benzenesulfonamide] yielded a melting point of 225 to 227 °C. Moreover, the IC50 in series [1] was 13.8 nM.
For `COc1ccnc(CCc2nc3cc(-c4ccc(S(=O)(=O)N(C)C)cc4)cnc3[nH]2)c1` [compound 1, 4-{2-[2-(4-Methoxypyridin-2-yl)ethyl]-3H-imidazo[4,5-b]pyridin-6-yl}-N,N-dimethyl-benzenesulfonamide], the melting point was 217 to 218 °C. For the same compound, the IC50 in series [1] is 14.8 nM.
In the case of `COc1ccnc(CCc2nc3cc(-c4ccc(S(N)(=O)=O)cc4)cnc3[nH]2)c1` [compound 4, 4-{2-[2-(4-Methoxypyridin-2-yl)ethyl]-3H-imidazo[4,5-b]pyridin-6-yl}-benzenesulfonamide], the melting point is 216 to 218 °C. Moreover, in series [1], the IC50 was 14.8 nM.
For `CCNS(=O)(=O)c1ccc(-c2cnc3[nH]c(CCc4cc(OC)ccn4)nc3c2)cc1` [compound 5, N-Ethyl-4-{2-[2-(4-methoxypyridin-2-yl)ethyl]-3H-imidazo-[4,5-b]pyridin-6-yl}benzenesulfonamide], in that order: 214 to 216 °C and 24 nM.
For `COc1ccnc(CCc2nc3cc(-c4ccc(S(=O)(=O)N(C)C)c(F)c4)cnc3[nH]2)c1` [compound 6, 2-Fluoro-4-{2-[2-(4-methoxypyridin-2-yl)ethyl]-3H-imidazo[4,5-b]pyridin-6-yl}-N,N-dimethyl-benzenesulfonamide], the melting point fell in the range of 211 to 212 °C. Moreover, the IC50 in series [1] is 21.4 nM.

For the origin of these results see patent publication US7468377B2, “Imidazopyridine-derivatives as inductible no-synthase inhibitors” (Altana Pharma AG, priority 2003, dated 2008).
